Reference: US20120270237A9, “METHODS FOR THE IDENTIFICATION OF KINASE INTERACTING MOLECULES AND FOR THE PURIFICATION OF KINASE PROTEINS” (Cellzone AG, priority 2009, published 2012)

Molecular target: T1, ADCK1 (Homo sapiens, UniProt Q86TW2)
T1 construct: capturing and identification of kinases from L-363 cell lysate; endogenous in cells; host or cells: L-363 (treated with MG132 before harvest)
Assay: Kinobeads competition binding, L-363 cell lysate
Conditions: 10 μM free compound, L-363 lysate
Method: To one aliquot of cell lysate 10 μM of the free compound (FIG. 3, CZC31326) was added and allowed to bind to proteins in the lysate. Then the affinity matrix with the immobilized compound was added to capture proteins that were not interacting with the previously added free compound. Beads were separated from the lysate and bead bound proteins were eluted in SDS sample buffer and subsequently separated by SDS-Polyacrylamide gel electrophoresis (FIG. 8). Suitable gel bands were cut out and subjected to in-gel proteolytic digestion with trypsin. The second lysate aliquot was processed identically, however no free compound was added (DMSO solvent control). Peptides originating from samples 1 and 2 were labeled with iTRAQ reagents (iTRAQ 114 and iTRAQ 117) and the combined samples were analyzed with a nano-flow liquid chromatography system coupled online to a tandem mass spectrometer (LC-MS/MS) experiment followed by iTRAQ reporter ion quantification in the MS/MS spectra as described in Example 2.
For this experiment the human plasma cell leukaemia line L-363 was used (German Collection of Microorganisms and Cell Cultures, DSMZ number ACC49, Braunschweig, Germany). Cells were treated for three hours with 20 μM of the proteasome inhibitor MG132 (Z-Leu-Leu-Leu-al, Sigma C2211) prior to cell harvesting.

T1 sequence (Q86TW2 whole entry): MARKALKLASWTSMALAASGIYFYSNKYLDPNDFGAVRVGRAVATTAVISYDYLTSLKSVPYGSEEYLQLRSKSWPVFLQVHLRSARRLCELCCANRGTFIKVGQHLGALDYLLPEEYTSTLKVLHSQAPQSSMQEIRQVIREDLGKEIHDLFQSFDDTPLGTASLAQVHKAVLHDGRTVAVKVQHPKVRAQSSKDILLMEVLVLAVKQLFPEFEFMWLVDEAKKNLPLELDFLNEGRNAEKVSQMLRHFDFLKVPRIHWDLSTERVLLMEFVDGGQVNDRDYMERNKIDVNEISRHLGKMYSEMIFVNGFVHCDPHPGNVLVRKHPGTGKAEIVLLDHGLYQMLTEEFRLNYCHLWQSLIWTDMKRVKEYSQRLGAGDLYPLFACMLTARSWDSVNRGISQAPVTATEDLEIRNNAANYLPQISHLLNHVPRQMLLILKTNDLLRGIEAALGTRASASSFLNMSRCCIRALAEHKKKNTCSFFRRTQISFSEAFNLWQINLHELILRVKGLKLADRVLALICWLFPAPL

Question: `CS(=O)(=O)Nc1ccccc1Nc1nc(Nc2cccc(OCCN)c2)ncc1Cl` [CZC31326, N-(2-(2-(3-(2-aminoethoxy)phenylamino)-5-chloropyrimidin-4-ylamino)phenyl)methanesulfonamide] was tested. Which inhibition at 10 µM did it give?
Answer: 93.8%
